Legend:
[1] = test system: rats; assay: Rat conflict test
Protocol: Male Hooded Lister rats (200-250 g) were obtained from Interfauna (Huntingdon, UK) and male TO mice (20-25 g) were obtained from Bantin and Kingman (Hull, UK). Both rodent species were housed in groups of six. Ten Common Marmosets (Callithrix Jacchus) weighing between 280 and 360 g, bred at Manchester University Medical School (Manchester, UK) were housed in pairs. All animals were housed under a 12-hour light/dark cycle (lights on at 07.00 hour) and with food and water ad libitum.
Rats were trained to press levers for food reward in operant chambers. The schedule consisted of alternations of four 4-minute unpunished periods on variable interval of 30 seconds signalled by chamber lights on and three 3-minute punished periods on fixed ratio 5 (by footshock concomitant to food delivery) signalled by chamber lights off. The degree of footshock was adjusted for each rat to obtain approximately 80% to 90% suppression of responding in comparison with unpunished responding. Rats received saline vehicle on training days.
The results are expressed as mean percent increase or decrease of lever pressing (vertical bars represent ±SEM) of at least 5 animals per group on test day compared with mean performances obtained the 2 previous days following vehicle administration.
*p <0.05, **p <0.01 (paired Student t-test).

[2] = test system: glycine/NMDA receptor; conditions: previous radioligand binding studies; cited from earlier work
[3] = in vivo; cited from earlier work
[4] = in vivo; cited from earlier work; remark: listed apart in the source

Row | Compound | increase in lever pressing in the punished period ([1]; 3 mg/kg (minimum effective dose), 40 minutes before test) | maximal effect, increase in lever pressing in the punished period ([1]; 30 mg/kg, 40 minutes before test) | minimal effective dose ([1]; Rattus norvegicus, 40 min, read-out: minimum effective dose (MED) for increased lever pressing in the punished period) | unpunished responding ([1]; any of the doses tested (1-100 mg/kg)) | reduction in lever pressing in the unpunished period (indicating sedation/ataxia) ([1]; 100 mg/kg (highest dose tested)) | binding to the glycine/NMDA receptor [2] | penetration of the blood-brain barrier [3] | metabolism in the body [4]
1 | CNC1=Nc2ccc(Cl)cc2C(c2ccccc2)=[N+]([O-])C1 [chlordiazepoxide] | 128.4% | 330.0% | 3 mg/kg | not reduced |  |  |  | 
2 | NCC1(CC(=O)O)CCCCC1 [gabapentin, 1-(aminomethyl)cyclohexaneacetic acid] |  |  |  |  | 37.4% | does not bind | readily penetrates | not metabolized
